Experimental data as given in patent publication US20090175845A1, “METHODS FOR IDENTIFYING COMPOUNDS THAT MODULATE PHB DOMAIN PROTEIN ACTIVITY AND COMPOSITIONS THEREOF” (THE TRUSTEES OF COLUMBIA UNIVERSITY IN THE CITY OF NEW YORK, priority 2005, published 2009).

Experiments:
[1] = test system: mec-2 null worms expressing the mec-2(C140/174A) gene; test: C. elegans gentle touch sensitivity on plates with defined sterols; format: in vivo; details: sterol substituted for cholesterol in the growth medium, FIG. 8C
Method: C. elegans experiments. C. elegans strains were cultured at 20° C., assayed for touch sensitivity, and prepared for immunofluorescence as described previously [Zhang et al. (2004) Curr. Biol. 14:1888-96; Goodman et al. (2002) Nature 415:1039-42]. Briefly, C. elegans strains were cultured at 20° C. as described in the art. Strains were grown for at least three consecutive generations without starvation before carrying out the experiments described herein. Gentle touch and harsh touch sensitivity were assayed in blind tests by stimulating with an eyebrow hair or prodding with a platinum wire, respectively, as described in the art. To quantify the response, the number of responses in about 30 animals to 10 touches delivered alternately near the head and tail was recorded. Whole-mount immunofluorescence microscopy was carried out using methods known in the art.
Media for growth on limiting or no cholesterol or on other sterols were prepared from chloroform-extracted reagents as described by Matyash et al. [(2004) PLoS Biol. 2: e280].
First, a version of MEC-2 with reduced cholesterol binding was generating by mutating the predicted palmitoylation sites of the protein. Briefly, HEK293T cells were transfected with wild type MEC-2 or MEC-2(C140/174A) and labeled with [^3H]palmitic acid or [^3H]photoaffinity cholesterol. Equal expression of proteins in the lysates was confirmed on Western blots. […] Because touch sensitivity of wild-type animals was not affected by this limited cholesterol depletion, the effects observed with the palmitoylation mutant cannot be attributed to indirect effects on neuronal growth or development. Test compounds that target palmitoylation sites in PHB domain proteins can be used to modulate activity of such proteins, for example, by reducing their activity.

TRPC6 = target: T1, TRPC6 (Homo sapiens, UniProt Q9Y210); test: Oocyte electrophysiology, two-electrode voltage clamp; format: cell-based; details: TRPC6-expressing Xenopus laevis oocytes, Ca2+ free bath solution, 10 μM
T1 construct: expressed in transfected cells; host or cells: Xenopus laevis oocytes (cRNA injection)
T1 sequence (Q9Y210 1-931): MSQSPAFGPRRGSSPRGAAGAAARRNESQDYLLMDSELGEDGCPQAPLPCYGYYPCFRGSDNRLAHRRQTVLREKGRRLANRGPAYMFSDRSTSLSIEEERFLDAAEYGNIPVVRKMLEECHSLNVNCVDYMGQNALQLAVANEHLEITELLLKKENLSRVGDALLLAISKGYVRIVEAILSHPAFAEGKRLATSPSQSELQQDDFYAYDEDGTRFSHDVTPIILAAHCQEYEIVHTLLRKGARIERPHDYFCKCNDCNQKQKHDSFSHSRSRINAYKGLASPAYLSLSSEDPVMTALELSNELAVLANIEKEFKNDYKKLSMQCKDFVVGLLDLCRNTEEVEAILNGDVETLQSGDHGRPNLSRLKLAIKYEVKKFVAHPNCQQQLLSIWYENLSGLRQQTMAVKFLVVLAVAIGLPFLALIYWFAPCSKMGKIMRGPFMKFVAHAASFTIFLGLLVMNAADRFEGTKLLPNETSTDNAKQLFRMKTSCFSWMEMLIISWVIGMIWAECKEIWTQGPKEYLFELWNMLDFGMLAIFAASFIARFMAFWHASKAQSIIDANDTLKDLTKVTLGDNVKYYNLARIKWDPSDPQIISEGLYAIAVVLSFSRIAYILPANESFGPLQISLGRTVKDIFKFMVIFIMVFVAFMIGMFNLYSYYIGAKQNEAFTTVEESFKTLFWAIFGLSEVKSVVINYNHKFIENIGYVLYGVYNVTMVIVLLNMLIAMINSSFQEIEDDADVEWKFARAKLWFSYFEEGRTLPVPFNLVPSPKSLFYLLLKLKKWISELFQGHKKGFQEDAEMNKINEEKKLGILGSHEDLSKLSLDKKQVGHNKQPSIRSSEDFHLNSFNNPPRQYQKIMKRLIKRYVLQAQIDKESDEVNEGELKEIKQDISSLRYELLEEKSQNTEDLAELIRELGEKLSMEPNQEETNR
Method: Oocyte Electrophysiology. Xenopus laevis oocytes were isolated from adult frogs (Kähler, Hamburg, Germany), dispersed and defolliculated by a 45 minute treatment with collagenase (type A, Boehringer, Germany), and were rinsed and kept at 18° C. in ND96-buffer (in mmol/l): NaCl 96, KCI 2, CaCl2 1.8, MgCl2 1, HEPES 5, Na-pyruvate 2.5, pH 7.55), supplemented with theophylline (0.5 mmol/l) and gentamycin (5 mg/l).
To prepare cRNAs for TRPC6, Podocin and Podocin-DPHB (Podocin-ΔPHB), cDNAs encoding TRPC6, Podocin and Podocin-DPHB were transcribed in vitro using the T7 promoter and polymerase (Promega, Madison, Wis.). After isolation from adult Xenopus laevis female frogs (Kähler, Hamburg, Germany), oocytes were dispersed and defolliculated by a 45 minute treatment with collagenase (type A, Boebringer, Germany). Subsequently, the oocytes were rinsed and kept at 18° C. in ND96-buffer (in mmol/l): NaCl 96, KCI 2, CaCI2 1.8, MgCI2 1, HEPES 5, Na-pyruvate 2.5, pH. […] Membrane currents were measured by voltage clamping of the oocytes (Warner oocyte clamp amplifier OC725C) in intervals from −60 to +40 mV, each 1 s. Conductances were calculated according to Ohm's law. Na^+ conductances were determined by replacing Na^+ by n-methyl-D-glucamine (GNMDG) in a Ca^2+ free bath solution, before and after stimulation with 10 μM dioctanoyl glycerol (Sigma, Germany). […]

inward Na+ current (TRPC6)	SMILES	rescue of reduced touch sensitivity [1]
–	CC(C)CCC[C@@H](C)[C@H]1CC[C@H]2C3=CC=C4C[C@@H](O)CC[C@]4(C)[C@H]3CC[C@]12C [7-dehydro cholesterol]	could be rescued
further augmented	CCCCCCCC/C=C\CCCCCCCC(=O)OC[C@H](CO)OC(C)=O [OAG, 1-oleoyl-2-acetyl-sn-glycerol]	–
–	CC(C)[C@@H](C)/C=C/[C@@H](C)[C@H]1CC[C@H]2C3=CC=C4C[C@@H](O)CC[C@]4(C)[C@H]3CC[C@]12C [ergosterol]	could be rescued
–	CC(C)CCC[C@@H](C)[C@H]1CC[C@H]2C3=CC[C@H]4C[C@@H](O)CC[C@]4(C)[C@H]3CC[C@]12C [lathosterol]	could be rescued
